In patent US20190085334A1, “TREATMENT OF NEUROINFLAMMATION IN NEUROLOGICAL DISORDERS” (Board of Trustees of Michigan State University, priority 2017, published 2019):

How the values were obtained:
[1] = system: CXCL10 production from monocytes; assay: CXCL10 production from interferon-stimulated monocytes, intracellular staining on flow cytometry; assay type: cell-based, human
Description: (§1) Cells are plated at 3×10^5 cells/well for PBMC and isolated monocyte experiments, and 1×10^5 cell/well for isolated neutrophil experiments, in 96-well plates. Cells are cultured in complete RPMI (RPMI 1640, 10% FBS, 1×PSF). For cross-linking experiments 10 μg/mL anti-SLAMF7 mAb or SLAMF7-Fc is added to a sterile, high-binding 96-well cell culture plate O/N at 4° C. For all in vitro flow cytometry experiments, cells are cultured in the presence of stimuli for 17-18 h. In the monocyte maturation assay as shown in FIG. 18E the cells are stimulated with only 25 IU/mL IFNα for exactly 24 h. Small molecule inhibitors are added 45-60 min before IFNα for all relevant experiments. For experiments involving intracellular staining, BD GolgiPlug is added for the final 5 h. NK92 cells are purchased from ATCC and cultured as indicated by manufacturer.
(§2) Cells are prepared and stained as previously described. Intracellular staining is performed using the BD fixation/permeabilization kit (BD Biosciences) per manufacturer's instructions. Transcription factor staining is performed with the Transcription Factor Buffer Set (BD Pharmingen) per manufacturer's instructions. Samples are analyzed on either a BD LSR II or BD FACSCanto. LIVE/DEAD staining with Aqua fixable stain (ThermoFisher) is included during initial experiments and cell viability is verified to be greater than 90%.

[2] = system: SLAMF7 expression on monocytes; assay: SLAMF7 expression on PBMCs and monocytes by flow cytometry; assay type: cell-based, human
Description: as §1, §2

isolated monocytes = assay: qRT-PCR of chemokine and ISG mRNA in isolated monocytes; assay type: cell-based, human; conditions: IFNα and SLAMF7 cross-linking; SHP1/2 inhibitor 10 μM
Description: Isolated monocytes are plated in 96-well plates at 3×10^5 cells/well and stimulated as indicated for 4 h. Cells are harvested and placed into Trizol (ThermoFisher) and RNA is isolated per manufacturer's instructions. RNA is reverse transcribed with SuperStrand First Strand Synthesis Kit III (Invitrogen) per manufacturer's instructions and analyzed on a QuantStudio7 system (ThermoFisher). GAPDH is used as a housekeeping gene and the ΔΔCt method is used for analysis.

CXCL10 = biological target: T1, CXCL10 (Homo sapiens, UniProt P02778); conditions: monoclonal antibodies to reduce CXCL10; cited from earlier work
T1 sequence (P02778 22-98): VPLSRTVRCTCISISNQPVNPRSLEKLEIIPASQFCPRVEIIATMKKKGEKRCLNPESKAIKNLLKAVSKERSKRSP

[3] = system: SLAMF7 expression on neutrophils; assay: SLAMF7 expression on neutrophils by flow cytometry; assay type: cell-based, human; conditions: presence and absence of IFNα stimulation
Description: as §1
Cells are prepared and stained as previously described. Intracellular staining is performed using the BD fixation/permeabilization kit (BD Biosciences) per manufacturer's instructions. […] Samples are analyzed on either a BD LSR II or BD FACSCanto. […]
(§3) CD14^+ monocytes are isolated from PBMCs via positive selection using CD14 Microbeads (Miltenyi Biotec) per manufacturer's instructions. Purity is consistently greater than 90% as assessed by flow cytometry. […] Purity is consistently greater than 98% as assessed by flow cytometry.

isolated neutrophils = assay: Cytokine/chemokine release from isolated neutrophils, BioPlex assay; assay type: cell-based, human
Description: as §1
For analysis of cell culture, supernatant and plasma samples 80 μL of media or plasma is used, undiluted, and the assay is run per manufacturer's instructions (Bio-Rad, Hercules, Calif.) via Luminex 100 technology. […]
as §3

[4] = SLAMF7-stimulated cells, IFNα, 100 nM

## CC(C)CCC[C@@H](C)[C@H]1CC[C@H]2[C@@H]3CCC4C[C@H](N)CC[C@]4(C)[C@H]3CC[C@]12C (some centres unmarked) [3AC]
[1]; monocytes stimulated with IFNα and SLAMF7 cross-linking, pre-treatment 5 μM
  recovery of CXCL10 expression: does not result in recovery of CXCL10 expression

## CC(C)C[C@H](NC(=O)[C@H](Cc1ccccc1)NC(=O)c1cnccn1)B(O)O [Bortezomib]
[1]; [4]
  CXCL10 production: further decreases CXCL10 production
  recovery of CXCL10 expression: does not result in recovery of CXCL10 expression
[2]; with IFNα, 100 nM
  SLAMF7 expression on monocytes: acts synergistically with IFNα to upregulate SLAMF7 expression

## CC(C)(C)C(=O)Nc1ccc2c(c1)C(=O)C(=O)c1ccccc1-2 [CAS 345630-40-2]
[1]; IFNα and SLAMF7 cross-linking, pre-treatment 1 μM
  rescue of CXCL10 production: fails to rescue CXCL10 production

## O=C(/C=C/c1ccc(CN(CCO)CCc2c[nH]c3ccccc23)cc1)NO [Dacinostat]
[2]; classical monocytes, IFNα plus HDACi
  IFNα-mediated SLAMF7 up-regulation: prevents IFNα-mediated SLAMF7 up-regulation

## O=S(=O)(O)c1ccc2cc(N=Nc3cc(S(=O)(=O)O)c4cccnc4c3O)ccc2c1 [NSC87877]
[1]; monocytes stimulated with IFNα and SLAMF7 cross-linking, pre-treatment 10 μM
  recovery of CXCL10 expression: does not result in recovery of CXCL10 expression
Isolated monocytes
  involvement of SHP1/2 in alpha chemokine inhibition: not involved in alpha chemokine inhibition

## BMS-936557: anti-CXCL10 monoclonal antibody (Brisol-Myers Squibb)
CXCL10
  anti-inflammatory activity: limited anti-inflammatory activity

## IFNα
[3]
  SLAMF7 expression on neutrophils: unable to upregulate SLAMF7
Isolated neutrophils; IFNα by itself, neutrophils from HCs and HIV+ patients
  CXCL10 release from neutrophils: can induce CXCL10 release
[2]; CD14+ monocytes, IFNα 100 IU/mL
  SLAMF7 response of CD14+ monocytes: most robust SLAMF7 response
[2]; total PBMCs from HIV+ patients, IFNα 100 IU/mL
  percent of SLAMF7+ PBMCs: minor, but significant increase

## lipopolysaccharide [LPS]
Isolated neutrophils; LPS added to IFNα
  CXCL10 release from neutrophils: enhanced
